The structures appear in SMILES notation.

A short description of data set [1]: in vivo. The settings on record: Wistar, rat, po, 10 mg/kg.
Data set [2] in a line: in vivo. The conditions noted are these: Wistar, rat, po, 10 mg/kg. The source holds these as a separate data set.
Data set [3] is described as follows: in vivo. The conditions noted are these: Wistar, rat, iv, 1 mg/kg.
Data set [4] can be described thus: in vivo. The settings on record: Wistar, rat, iv, 1 mg/kg. The source holds these as a separate data set.
For a further data set, the species on record is Rattus norvegicus. The settings on record: in vivo, iv, 1 mg/kg.
The nature of data set [5]: in vivo. The conditions noted are these: Wistar, rat, po, 10 mg/kg. The source holds these as a separate data set.
The nature of data set [6]: AUC in Beagle dog at 1 mg/kg, iv. In kind it is ADME, organism-based, Canis lupus familiaris. More on the design: dose 1 mg/kg, route intravenous. The settings on record: plasma.
A short description of data set [7]: Oral bioavailability in cynomolgus monkey at 1 mg/kg. In kind it is ADME, organism-based, Macaca fascicularis. The conditions noted are these: in vivo.
Data set [8] in a line: Cmax in Beagle dog at 1 mg/kg, po. The settings on record: in vivo. In kind it is ADME, organism-based, Canis lupus familiaris. Further details: dose 1 mg/kg, route oral.
The nature of data set [9]: Oral bioavailability in Beagle dog at 1 mg/kg. In kind it is ADME, organism-based, Canis lupus familiaris. The settings on record: in vivo.
Data set [10] is described as follows: Plasma clearance in Beagle dog at 1 mg/kg, iv. More on the design: dose 1 mg/kg, route intravenous. Format: ADME, organism-based, Canis lupus familiaris.
Data set [11] can be described thus: Tmax in cynomolgus monkey at 1 mg/kg, po. Format: ADME, organism-based, Macaca fascicularis. Further details: dose 1 mg/kg, route oral. The conditions noted are these: in vivo.
The nature of data set [12]: Tmax in Beagle dog at 1 mg/kg, po. In kind it is ADME, organism-based, Canis lupus familiaris. Further details: dose 1 mg/kg, route oral. The settings on record: in vivo.
The nature of data set [13]: Terminal phase volume of distribution […] in Beagle dog at 1 mg/kg, iv. In kind it is ADME, organism-based, Canis lupus familiaris. More on the design: dose 1 mg/kg, route intravenous. The settings on record: in vivo, read-out: Vbeta.
Data set [14] can be described thus: Cmax in cynomolgus monkey at 1 mg/kg, po. More on the design: dose 1 mg/kg, route oral. In kind it is ADME, organism-based, Macaca fascicularis. The conditions noted are these: in vivo.
Data set [15] is described as follows: Half life in Beagle dog at 1 mg/kg, iv. Format: ADME, organism-based, Canis lupus familiaris. Further details: dose 1 mg/kg, route intravenous. The settings on record: in vivo.
Data set [16] is described as follows: in vivo. The settings on record: Wistar, rat, plasma, iv, 1 mg/kg.
Data set [17] in a line: Tmax in BALB/c mouse at 10 mg/kg, po. In kind it is ADME, organism-based. More on the design: dose 10 mg/kg, route oral. The conditions noted are these: in vivo.
Data set [18] in a line: Plasma clearance in cynomolgus monkey at 0.5 mg/kg, iv. Format: ADME, organism-based, Macaca fascicularis. More on the design: dose 0.5 mg/kg, route intravenous.
Data set [19] in a line: Cmax in BALB/c mouse at 10 mg/kg, po. In kind it is ADME, organism-based. More on the design: dose 10 mg/kg, route oral. The settings on record: in vivo.
Data set [20] is described as follows: in vitro. The conditions noted are these: human, liver microsomes.
Data set [21] can be described thus: AUC in cynomolgus monkey at 0.5 mg/kg, iv. In kind it is ADME, organism-based, Macaca fascicularis. More on the design: dose 0.5 mg/kg, route intravenous. The conditions noted are these: plasma.
Data set [22] is described as follows: in vivo. The settings on record: Wistar, rat, plasma, iv, 1 mg/kg. The source holds these as a separate data set.
Data set [23] can be described thus: Half life in cynomolgus monkey at 0.5 mg/kg, iv. Format: ADME, organism-based, Macaca fascicularis. More on the design: dose 0.5 mg/kg, route intravenous. The conditions noted are these: in vivo.
Data set [24] is described as follows: Volume of distribution at steady state in cynomolgus monkey at 0.5 mg/kg, iv. In kind it is ADME, organism-based, Macaca fascicularis. Further details: dose 0.5 mg/kg, route intravenous. The conditions noted are these: in vivo, read-out: Vdss.
Data set [25] is described as follows: Terminal phase volume of distribution […] in cynomolgus monkey at 0.5 mg/kg, iv. The conditions noted are these: in vivo, read-out: Vbeta. In kind it is ADME, organism-based, Macaca fascicularis. Further details: dose 0.5 mg/kg, route intravenous.
A short description of data set [26]: in vitro. The conditions noted are these: rat, liver microsomes.
Data set [27] is described as follows: Volume of distribution at steady state in Beagle dog at 1 mg/kg, iv. In kind it is ADME, organism-based, Canis lupus familiaris. The settings on record: in vivo, read-out: Vdss. Further details: dose 1 mg/kg, route intravenous.

In the data set “in vivo [1]”, `CC(=O)Nc1cnc(-c2ccncc2)c(-c2ccco2)n1` registered a bioavailability of 93%. Moreover, the Tmax in “in vivo [2]” is 1.1 h. The compound further gave a Vd in “in vivo [3]” of 0.8 L/kg. Moreover, the half-life in the data set “in vivo [4]” is 0.4 h. This compound registered an AUC in the data set listed under Rattus norvegicus of 751000 ng·h/mL.

`O=C(Nc1cnc(-c2ccncc2F)c(-c2cccnc2)n1)C1CC1` [LAS101057]: the Cmax in “in vivo [5]” was determined as 7110 ng/mL; in data set [8], 820 ng/mL; in [14], 5900 ng/mL; in data set [19], 17400 ng/mL. For the same compound, the AUC in data set [6] was found to be 13600 ng·h/mL; in data set [21] it was 3400 ng·h/mL; in the data set “in vivo [22]”, 920 ng·h/mL. The figures for the bioavailability (in data set [7]; in data set [9]; in the data set “in vivo [1]”) were 100%, 98% and 100%, respectively. For the same compound, the values for the clearance (in [10]; in “in vivo [16]”; in [18]) were 1.7 mL/min/kg, 18.3 mL/min/kg and 3.4 mL/min/kg, respectively. The Tmax in data set [11] is 3 h; in [12] it was 2 h; in data set [17], 0.25 h; in the data set “in vivo [2]”, 0.25 h. For the same compound, the Vd is 0.9 L/kg in data set [13]; 1.2 L/kg in the data set “in vivo [3]”; 0.4 L/kg in data set [24]; 0.8 L/kg in [25]; 0.8 L/kg in data set [27]. Moreover, the half-life is 8.6 h in [15], 3.8 h in [23] and 0.8 h in “in vivo [4]”. The metabolised at 0.5 h, 5 µM in the data set “in vitro [20]” turned out to be 5%; in “in vitro [26]” it was 13%.

The values above are taken from ChEMBL document CHEMBL1671839 (ACS Med Chem Lett, 2011).
